Consider 3 compounds from US9707233B2, “Heterocyclylamines as PI3K inhibitors” (Incyte Corporation, priority 2011, dated 2017).

Each structure is given as a SMILES string. pIC50: −log10 of the molar value. Where only a bound is given, the exact number is not on record here.

One assay deals with PI3Kδ (p110δ/p85α) (Homo sapiens (Human), UniProt O00329). Put plainly: PI3Kδ scintillation proximity assay (Example A3). The assay is classed as biochemical. Particulars: 20 μM ATP, 20 μM PIP2, 4 nM PI3Kδ; read-out: PI3Kδ SPA IC50. The essentials:
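IC50 derived by fitting percent control activity against log inhibitor concentration. Radiolabelled product was measured by scintillation counting on WGA SPA beads after overnight shaking. The kinase reaction used 4 nM p110δ/p85α, 20 μM ATP (with [γ-33P]ATP) and 20 μM PIP2 at pH 6.7 and room temperature, with 0.5% DMSO final.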

The target of the next assay is PI3Kδ (Homo sapiens (Human), UniProt O00329). The experiment in a line: PI3K enzyme assay, [γ-33P]ATP filter plate (Example A2), isoform δ. The assay is classed as biochemical. Particulars: as determined by Assay A2; 1000 μM ATP, 2.9 nM PI3Kδ. As to the method: PI3K isoforms α, β, δ and γ are purchased from Millipore (Bedford, Mass.).
Sequence of PI3Kδ (O00329 whole entry, canonical isoform): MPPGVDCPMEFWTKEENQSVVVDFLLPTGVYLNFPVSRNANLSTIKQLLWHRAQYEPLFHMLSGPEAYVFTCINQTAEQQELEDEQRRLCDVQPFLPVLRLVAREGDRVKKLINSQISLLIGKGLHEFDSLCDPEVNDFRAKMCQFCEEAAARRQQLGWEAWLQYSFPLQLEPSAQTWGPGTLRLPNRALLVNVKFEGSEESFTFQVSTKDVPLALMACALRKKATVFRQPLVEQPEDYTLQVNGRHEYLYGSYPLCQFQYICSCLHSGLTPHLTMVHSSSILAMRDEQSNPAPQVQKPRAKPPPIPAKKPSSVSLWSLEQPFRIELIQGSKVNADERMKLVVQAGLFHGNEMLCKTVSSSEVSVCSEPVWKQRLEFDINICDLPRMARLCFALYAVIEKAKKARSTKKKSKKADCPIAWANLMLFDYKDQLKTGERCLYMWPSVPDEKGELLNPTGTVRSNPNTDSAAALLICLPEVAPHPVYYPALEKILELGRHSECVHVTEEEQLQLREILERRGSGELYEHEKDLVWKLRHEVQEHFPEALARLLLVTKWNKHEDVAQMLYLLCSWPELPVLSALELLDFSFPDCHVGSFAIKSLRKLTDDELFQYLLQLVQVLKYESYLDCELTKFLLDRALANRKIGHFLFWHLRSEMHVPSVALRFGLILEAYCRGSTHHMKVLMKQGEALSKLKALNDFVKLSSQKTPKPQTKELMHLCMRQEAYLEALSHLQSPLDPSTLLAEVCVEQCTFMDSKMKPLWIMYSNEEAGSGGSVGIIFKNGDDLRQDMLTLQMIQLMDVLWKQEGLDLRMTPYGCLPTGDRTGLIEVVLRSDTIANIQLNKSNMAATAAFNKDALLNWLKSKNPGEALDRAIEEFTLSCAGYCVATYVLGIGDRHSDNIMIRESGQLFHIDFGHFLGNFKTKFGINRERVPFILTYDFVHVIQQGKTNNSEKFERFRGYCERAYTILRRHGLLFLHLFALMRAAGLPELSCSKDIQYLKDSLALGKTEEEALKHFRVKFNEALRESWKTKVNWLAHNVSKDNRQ
Sequence of PI3Kδ (P27986 whole entry partner, canonical isoform): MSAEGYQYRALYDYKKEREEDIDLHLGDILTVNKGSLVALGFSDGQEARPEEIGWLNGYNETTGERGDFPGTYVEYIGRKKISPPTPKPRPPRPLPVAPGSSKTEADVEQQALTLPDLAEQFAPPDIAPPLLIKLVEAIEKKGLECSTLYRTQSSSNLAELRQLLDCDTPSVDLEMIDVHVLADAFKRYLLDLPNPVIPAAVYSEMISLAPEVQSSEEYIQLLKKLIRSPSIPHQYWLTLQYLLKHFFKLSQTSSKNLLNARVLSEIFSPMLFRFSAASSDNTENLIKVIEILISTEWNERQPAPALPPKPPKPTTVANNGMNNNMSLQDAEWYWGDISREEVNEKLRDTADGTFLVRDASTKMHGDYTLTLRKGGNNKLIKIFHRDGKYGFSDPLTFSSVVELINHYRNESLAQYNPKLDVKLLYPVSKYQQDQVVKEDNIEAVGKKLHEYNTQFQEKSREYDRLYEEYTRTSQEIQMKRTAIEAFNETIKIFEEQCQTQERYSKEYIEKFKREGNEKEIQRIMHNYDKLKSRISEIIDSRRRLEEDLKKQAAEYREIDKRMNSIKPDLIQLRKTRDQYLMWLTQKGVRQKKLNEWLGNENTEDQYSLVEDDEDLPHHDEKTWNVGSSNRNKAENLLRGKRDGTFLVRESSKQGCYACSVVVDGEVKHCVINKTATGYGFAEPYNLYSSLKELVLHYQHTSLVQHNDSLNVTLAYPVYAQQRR
Inhibitors are first diluted serially in DMSO and added to the plate wells before the addition of other reaction components. The final concentration of DMSO in the assay is 0.5%. The PI3K assays are carried out at room temperature in 20 mM MOPS, pH 6.7, 10 mM MgCl2, 5 mM DTT and CHAPS 0.03%. The reaction mixture is prepared containing 50 μM PIP2, kinase and varying concentration of inhibitors. Reactions are initiated by the addition of ATP containing 2.2 μCi [γ-^33P]ATP to a final concentration of 1000 μM. […] Reactions are incubated for 180 minutes and terminated by the addition of 100 μL of 1 M potassium phosphate pH 8.0, 30 mM EDTA quench buffer. A 100 μL aliquot of the reaction solution are then transferred to 96-well Millipore MultiScreen IP 0.45 μm PVDF filter plate (The filter plate is prewetted with 200 μL 100% ethanol, distilled water, and 1 M potassium phosphate pH 8.0, respectively). […] After drying by aspiration and blotting, the plate is air dried in an incubator at 37° C. overnight. Packard TopCount adapter (Millipore) is then attached to the plate followed with addition of 120 μL Microscint 20 scintillation cocktail (Perkin Elmer) in each well. After the plate sealing, the radioactivity of the product is determined by scintillation counting on Topcount (Perkin-Elmer). […]

Sequence of PI3Kδ (p110δ/p85α) (O00329 whole entry): as the sequence (O00329 whole entry, canonical isoform) above
Sequence of PI3Kδ (p110δ/p85α) (P27986 whole entry partner): as the sequence (P27986 whole entry partner, canonical isoform) above

As for `COc1c(C(C)n2nc(C)c3c(N)ncnc32)cc(Cl)c(C#N)c1C1CN(C(C)C)C1` (stereo not drawn) [Example 264, 4-[1-(4-Amino-3-methyl-1H-pyrazolo[3,4-d]pyrimidin-1-yl)ethyl]-6-chloro-2-(1-isopropylazetidin-3-yl)-3-methoxybenzonitrile], the pIC50 on PI3Kδ (p110δ/p85α) is not below 8.00.
In the case of `COc1c(C(C)n2nc(C)c3c(N)ncnc32)cc(Cl)c(C#N)c1C1CN(CC(C)(C)O)C1` (stereo not drawn) [Example 271, 4-[1-(4-Amino-3-methyl-1H-pyrazolo[3,4-d]pyrimidin-1-yl)ethyl]-6-chloro-2-[1-(2-hydroxy-2-methylpropyl)azetidin-3-yl]-3-methoxybenzonitrile], the pIC50 on PI3Kδ (p110δ/p85α) was not below 8.00.
`COc1c([C@@H](C)n2nc(C)c3c(N)ncnc32)cc(Cl)c(C#N)c1C1CN(C[C@@H](C)O)C1` [Example 363, 4-((R)-1-(4-amino-3-methyl-1H-pyrazolo[3,4-d]pyrimidin-1-yl)ethyl)-6-chloro-2-(1-((R)-2-hydroxypropyl)azetidin-3-yl)-3-methoxybenzonitrile] gave a negative logarithm of the IC50 (pIC50) against PI3Kδ of 6.70 to 7.30.
